The text below walks through data of article PMC4554599 (Bipolar disorders, 2014).

The target in assay [1] is T1, acyl-CoA synthetase-4 (Acsl4) (Rattus norvegicus, UniProt O35547). It is filed as biochemical.
In assay [2] the target is T1, acyl-CoA synthetase-4 (Acsl4). Nature of the assay: Michaelis-Menten kinetics, […]AA to AA-CoA conversion. It is filed as biochemical.

T1 sequence (O35547 whole entry): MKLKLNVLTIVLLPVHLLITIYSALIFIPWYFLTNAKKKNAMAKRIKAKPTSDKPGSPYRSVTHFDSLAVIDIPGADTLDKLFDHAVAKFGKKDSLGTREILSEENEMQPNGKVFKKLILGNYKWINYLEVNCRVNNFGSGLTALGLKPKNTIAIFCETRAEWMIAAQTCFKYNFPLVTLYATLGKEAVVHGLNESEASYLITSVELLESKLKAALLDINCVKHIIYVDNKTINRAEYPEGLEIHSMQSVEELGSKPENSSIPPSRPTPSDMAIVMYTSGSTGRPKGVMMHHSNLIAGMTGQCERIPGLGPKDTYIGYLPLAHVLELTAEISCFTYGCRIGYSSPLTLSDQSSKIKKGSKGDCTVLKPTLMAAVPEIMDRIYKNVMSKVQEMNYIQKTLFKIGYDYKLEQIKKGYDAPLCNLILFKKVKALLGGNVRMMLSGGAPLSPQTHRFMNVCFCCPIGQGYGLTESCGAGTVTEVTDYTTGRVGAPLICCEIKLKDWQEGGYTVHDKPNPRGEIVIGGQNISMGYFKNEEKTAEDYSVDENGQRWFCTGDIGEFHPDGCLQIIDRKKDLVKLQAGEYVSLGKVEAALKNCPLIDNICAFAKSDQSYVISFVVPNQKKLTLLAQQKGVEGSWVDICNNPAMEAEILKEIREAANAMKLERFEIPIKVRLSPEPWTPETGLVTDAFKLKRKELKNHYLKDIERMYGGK

`CCC(C)C(CC)C(N)=O` (racemic) [VCD, 2-ethyl-3-methyl pentanamide] displayed a Ki in assay [1] of 6.38 ± 0.63 mM. As for `CCCCC/C=C\C/C=C\C/C=C\C/C=C\CCCC(=O)O` [AA, arachidonic acid], the Km in assay [2] came to 4.63 ± 0.67 µM.

One may read the Ki as a measure of affinity in units of concentration, obtained from inhibition or displacement. Lower therefore signals a stronger hold on the target. In general, Km refers to the substrate concentration at which the rate is half of its maximum.
